# pIC50: −log10 of the molar value.
# Columns and labels:
# [1] = Inhibition of Aplysia californica nicotinic acetylcholine receptor
# Plasmodium falciparum = assay: Antimicrobial activity against chloroquine-resistant Plasmodium falciparum; assay type: functional, organism-based
# [2] = tested on: Mycobacterium tuberculosis; assay: Antimicrobial activity against Mycobacterium tuberculosis H37Rv at 128 ug/ml; assay type: functional
# RPMI-8226 = assay: Cytotoxicity against human RPMI8226 cells; assay type: functional
# SR = assay: Cytotoxicity against human SR cells; assay type: functional
# CCRF-CEM = assay: Cytotoxicity against human CCRF-CEM cells; assay type: functional
# MOLT-4 = assay: Cytotoxicity against human MOLT4 cells; assay type: functional
smiles,measurement,setting,value
C=C(C=O)[C@H]1CC2=C(C(=O)OC)C=C(O2)[C@H]2O[C@]2(C)C[C@@H]2OC(=O)[C@]3(O[C@@H]23)[C@H](OC(C)=O)C1 [BIPINNATIN E],pIC50,[1],6.64
C=C(C(=O)OC)[C@@H]1C[C@@H](OC(C)=O)C2=C[C@H](C[C@@]3(C)O[C@@H]3[C@@]3(O)C=C(C)[C@](O)(O3)[C@H]1OC(C)=O)OC2=O [BIPINNATIN M],IC50,Plasmodium falciparum,> 10 µg/mL
same,inhibition at 128 µg/mL,[2],20%
C=C(C)[C@@H]1CCC2=C[C@H](C[C@@]3(C)O[C@@H]3[C@]3(O)C=C(C)C(=O)[C@H]1O3)OC2=O [BIPINNATIN N],IC50,Plasmodium falciparum,> 10 µg/mL
C=C(C=O)[C@H]1CC(=O)[C@@H](C(=O)OC)[C@@H]2O[C@@](C)(CC2=O)C[C@@H]2OC(=O)[C@]3(O[C@@H]23)[C@@H](OC(C)=O)C1 [BIPINNATIN Q],GI50,RPMI-8226,4.1 µM
same,GI50,SR,2.6 µM
same,GI50,CCRF-CEM,5.8 µM
same,IC50,Plasmodium falciparum,> 10 µg/mL
same,GI50,MOLT-4,4.2 µM

# Reference: ChEMBL document CHEMBL1144820, “Bipinnatins K-Q, minor cembrane-type diterpenes from the West Indian Gorgonian Pseudopterogorgia kallos: isolation, structure assignment, and evaluation of biological activities” (J Nat Prod, 2008)
